The values below come from patent US20240228543A1, “CYCLIC PEPTIDE INHIBITORS OF USP22” (THE JOHNS HOPKINS UNIVERSITY, priority 2021, published 2024).

pIC50: −log10 of the molar value. Positions of bridges follow the written chain, without caps; N, C: chain ends. Non-standard residues stand in square brackets, D forms with d. Residues, ends and D or L forms follow the SMILES beside them. Some results are limits rather than exact numbers.

One assay has as its target T1, USP30 (Homo sapiens, UniProt Q70CQ3).
T1 sequence (Q70CQ3 1-517): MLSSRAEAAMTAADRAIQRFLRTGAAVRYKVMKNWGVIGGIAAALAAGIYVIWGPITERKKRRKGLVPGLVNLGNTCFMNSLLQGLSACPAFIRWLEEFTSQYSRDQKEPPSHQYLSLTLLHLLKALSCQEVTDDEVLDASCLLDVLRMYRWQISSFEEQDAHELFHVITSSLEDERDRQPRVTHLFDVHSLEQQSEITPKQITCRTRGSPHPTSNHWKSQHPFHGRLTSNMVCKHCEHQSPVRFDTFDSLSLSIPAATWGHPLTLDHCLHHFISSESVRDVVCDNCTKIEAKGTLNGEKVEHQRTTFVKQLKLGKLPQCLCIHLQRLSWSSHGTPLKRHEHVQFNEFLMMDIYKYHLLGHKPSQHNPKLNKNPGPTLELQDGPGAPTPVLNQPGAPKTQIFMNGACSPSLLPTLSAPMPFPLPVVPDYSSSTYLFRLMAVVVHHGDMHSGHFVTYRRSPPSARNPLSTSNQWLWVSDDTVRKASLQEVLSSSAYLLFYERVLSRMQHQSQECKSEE
The assay can be described thus: End-point Ub-AMC cleavage by off-target DUB USP30. Type of assay: biochemical. To be noted: 1 μM hD1, 200 nM USP30, 1 μM Ub-AMC. The source says:
USP7 and USP30 are USP DUBs and belong to the same structural family as USP22, while CYLD belongs to the structurally distinct ubiquitin C-terminal hydrolase (UCH) family of DUBs. […]

A further assay deals with T2, USP51/ATXN7L3/ENY2 (Homo sapiens, UniProt Q70EK9).
T2 construct: made in house
T2 sequence (Q70EK9 1-711): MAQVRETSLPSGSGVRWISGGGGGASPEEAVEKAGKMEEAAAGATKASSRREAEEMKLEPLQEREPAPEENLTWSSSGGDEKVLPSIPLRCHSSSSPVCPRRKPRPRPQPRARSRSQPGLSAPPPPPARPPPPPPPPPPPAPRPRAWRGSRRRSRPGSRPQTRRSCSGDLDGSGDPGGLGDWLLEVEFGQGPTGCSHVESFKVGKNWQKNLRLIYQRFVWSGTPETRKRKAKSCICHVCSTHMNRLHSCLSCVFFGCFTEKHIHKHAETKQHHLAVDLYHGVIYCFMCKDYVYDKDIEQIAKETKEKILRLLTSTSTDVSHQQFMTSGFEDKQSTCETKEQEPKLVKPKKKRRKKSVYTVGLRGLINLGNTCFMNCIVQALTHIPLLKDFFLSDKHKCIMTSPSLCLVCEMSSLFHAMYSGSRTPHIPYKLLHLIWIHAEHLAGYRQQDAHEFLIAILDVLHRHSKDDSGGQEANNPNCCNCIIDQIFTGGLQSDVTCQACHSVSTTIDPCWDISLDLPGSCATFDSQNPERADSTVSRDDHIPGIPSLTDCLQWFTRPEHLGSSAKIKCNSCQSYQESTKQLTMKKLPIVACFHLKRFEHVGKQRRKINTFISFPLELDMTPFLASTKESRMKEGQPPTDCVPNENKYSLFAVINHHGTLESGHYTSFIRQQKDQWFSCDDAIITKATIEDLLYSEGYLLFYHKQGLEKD
T2 sequence (Q14CW9 1-347 partner): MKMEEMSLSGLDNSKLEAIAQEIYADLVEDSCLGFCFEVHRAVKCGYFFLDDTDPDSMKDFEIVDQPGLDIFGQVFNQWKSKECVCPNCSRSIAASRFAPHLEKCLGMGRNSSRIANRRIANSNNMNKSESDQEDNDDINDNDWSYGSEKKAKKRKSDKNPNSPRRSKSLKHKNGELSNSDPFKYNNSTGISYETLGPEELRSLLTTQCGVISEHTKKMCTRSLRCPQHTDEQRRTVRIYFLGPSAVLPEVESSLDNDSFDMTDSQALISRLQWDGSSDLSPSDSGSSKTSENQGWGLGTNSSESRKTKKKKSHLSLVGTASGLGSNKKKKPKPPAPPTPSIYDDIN
T2 sequence (Q9NPA8 1-101 partner): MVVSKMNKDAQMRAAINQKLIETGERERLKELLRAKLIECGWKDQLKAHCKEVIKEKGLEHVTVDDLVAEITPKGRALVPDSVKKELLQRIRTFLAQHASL
The assay can be described thus: Inhibition of H2B DUB complexes, Ub-AMC cleavage: USP51 complex. Type of assay: biochemical. The note with it: 1000 nM complex, 5 μM Ub-AMC. How it is done: (§1) Cleavage rates of 5 μM Ub-AMC were assayed for 75 nM USP22/ATXN7L3/ENY2/ATXN7 (hDUBm), 100 nM USP27x/ATXN7L3/ENY2, or 1000 nM USP51/ATXN7L3/ENY2. Rates were normalized to the uninhibited reaction in each case to determine the fraction of apparent activity.
(§2) DUB specificity assays Ubiquitin-rhodamine(110)-glycine cleavage rates were measured for all DUBs available in the DUBprofiler™ panel with two independent replicates (44 in total; Ubiquigent). […] USP22 was not included in the panel, and is not represented in FIG. 12A. […] Initial cleavage rates of each complex were measured on a fixed concentration of 5 μM Ub-AMC.
(§3) Heterotrimeric complexes containing USP27x and USP51 were purified, respectively, in complex with ENY2 and ATXN7L3. The activity of these complexes on Ub-AMC was compared to that of the human DUBm, which contains USP22, ENY2, ATXN7L3, and a fourth subunit, ATXN7, that anchors the DUBm to the rest of the SAGA complex.

Another assay deals with T3, USP27x/ATXN7L3/ENY2 (Homo sapiens, UniProt A6NNY8).
T3 construct: made in house
T3 sequence (A6NNY8 1-438): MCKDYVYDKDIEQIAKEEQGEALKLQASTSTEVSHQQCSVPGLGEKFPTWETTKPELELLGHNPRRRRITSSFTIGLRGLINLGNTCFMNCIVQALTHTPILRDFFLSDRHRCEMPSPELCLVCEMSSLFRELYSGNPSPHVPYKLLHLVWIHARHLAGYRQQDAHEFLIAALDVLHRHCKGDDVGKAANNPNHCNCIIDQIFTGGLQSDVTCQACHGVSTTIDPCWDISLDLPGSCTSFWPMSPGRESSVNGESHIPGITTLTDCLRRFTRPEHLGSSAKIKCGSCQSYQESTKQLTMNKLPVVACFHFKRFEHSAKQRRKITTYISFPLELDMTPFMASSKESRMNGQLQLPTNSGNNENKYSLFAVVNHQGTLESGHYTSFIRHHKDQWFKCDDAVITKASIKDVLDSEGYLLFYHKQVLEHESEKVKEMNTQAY
T3 sequence (Q14CW9 1-347 partner): T2 sequence (Q14CW9 1-347 partner)
T3 sequence (Q9NPA8 1-101 partner): T2 sequence (Q9NPA8 1-101 partner)
The assay can be described thus: Inhibition of H2B DUB complexes, Ub-AMC cleavage: USP27x complex. It is filed as biochemical. To be noted: 100 nM complex, 5 μM Ub-AMC. How it is done:
as §1, §2, §3

Assay [1] concerns the target USP22/ATXN7L3/ENY2/ATXN7 (hDUBm) (Homo sapiens, UniProt Q9UPT9). The assay can be described thus: biochemical. How it is done: as §1, §2, §3

Chain of USP22/ATXN7L3/ENY2/ATXN7 (hDUBm) (Q9UPT9 whole entry, one chain of several): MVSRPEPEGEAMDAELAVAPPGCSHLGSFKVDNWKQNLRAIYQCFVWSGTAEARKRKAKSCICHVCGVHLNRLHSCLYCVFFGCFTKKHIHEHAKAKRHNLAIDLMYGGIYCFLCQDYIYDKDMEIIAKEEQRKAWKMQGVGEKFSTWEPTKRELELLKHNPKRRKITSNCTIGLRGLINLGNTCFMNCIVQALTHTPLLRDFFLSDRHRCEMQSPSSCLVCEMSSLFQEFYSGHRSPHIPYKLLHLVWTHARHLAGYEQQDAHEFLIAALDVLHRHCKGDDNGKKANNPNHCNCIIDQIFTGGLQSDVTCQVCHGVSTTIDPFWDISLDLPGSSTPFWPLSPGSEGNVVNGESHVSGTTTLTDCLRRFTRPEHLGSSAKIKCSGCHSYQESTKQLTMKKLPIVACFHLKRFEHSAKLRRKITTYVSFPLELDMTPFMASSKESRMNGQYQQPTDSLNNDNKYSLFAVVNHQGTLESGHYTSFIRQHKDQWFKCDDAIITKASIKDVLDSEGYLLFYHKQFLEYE
Chain of USP22/ATXN7L3/ENY2/ATXN7 (hDUBm) (O15265 3-151 partner limits assumed, one chain of several): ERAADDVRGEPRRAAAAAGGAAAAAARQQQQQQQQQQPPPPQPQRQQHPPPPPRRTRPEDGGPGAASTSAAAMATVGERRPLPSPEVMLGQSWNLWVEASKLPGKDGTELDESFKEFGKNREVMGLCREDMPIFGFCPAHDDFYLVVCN

By pIC50 is commonly meant the IC50 on a negative log10 scale, so that one unit is a factor of ten. `CC[C@H](C)[C@@H]1NC(=O)[C@H](C)NC(=O)[C@@H](Cc2ccc(O)cc2)NC(=O)CSC[C@@H](C(N)=O)NC(=O)[C@H](CC(C)C)NC(=O)[C@H](CC(C)C)NC(=O)[C@H]([C@@H](C)O)NC(=O)[C@H]([C@@H](C)O)NC(=O)[C@H](CCCCN)NC(=O)CNC(=O)[C@H](CCCNC(=N)N)NC(=O)[C@H](Cc2ccc(O)cc2)NC(=O)[C@H](CO)NC1=O` [hD1] ({CH2CO}-[dY]AISYRGKTTLLC-NH2; thioether N-13): the “effect on USP30 activity” value on USP30 is listed as around 15%. Further, the pIC50 is below 3.60 on USP51/ATXN7L3/ENY2, 5.52 on USP27x/ATXN7L3/ENY2 and 7.00 in assay [1].
